Measurements published in US20250066358A1, “Inhibitors of Menin-MLL Interaction” (Bala Therapeutics, Inc., priority 2021, published 2025).

How the values were obtained:
[1] = target: T1, recombinant MEN1 protein and fluorescein-labeled MLL4-43 peptide (Homo sapiens, UniProt O00255); assay: Primary fluorescence polarization assay of MEN1 / MLL4-43 interaction inhibition; type: binding; conditions: MEN1 10 nM, MLL4-43 0.5 nM, 1 hour at room temperature
T1 construct: purchased Creativebiomart MEN1-35H
T1 sequence (O00255 1-610): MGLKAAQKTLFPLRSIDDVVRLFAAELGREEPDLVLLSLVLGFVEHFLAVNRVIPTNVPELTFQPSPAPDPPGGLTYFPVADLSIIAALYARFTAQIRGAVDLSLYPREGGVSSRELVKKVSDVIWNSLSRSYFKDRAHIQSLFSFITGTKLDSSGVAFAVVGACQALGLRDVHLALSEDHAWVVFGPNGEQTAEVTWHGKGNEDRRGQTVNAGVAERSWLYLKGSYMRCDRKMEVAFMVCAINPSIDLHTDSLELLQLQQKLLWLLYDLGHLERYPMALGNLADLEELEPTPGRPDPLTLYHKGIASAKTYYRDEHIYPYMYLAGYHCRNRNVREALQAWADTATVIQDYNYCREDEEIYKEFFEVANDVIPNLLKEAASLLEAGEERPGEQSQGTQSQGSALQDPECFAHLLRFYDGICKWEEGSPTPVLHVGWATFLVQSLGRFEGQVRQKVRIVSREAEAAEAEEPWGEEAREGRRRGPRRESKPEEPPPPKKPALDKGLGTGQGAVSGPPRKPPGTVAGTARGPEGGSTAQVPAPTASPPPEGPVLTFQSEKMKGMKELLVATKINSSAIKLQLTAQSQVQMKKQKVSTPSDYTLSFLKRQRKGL
Description: Compound activity was determined using recombinant MEN1 protein (Creativebiomart, Cat #MEN1-35H) and a custom fluorescein-labeled MLL4-43 peptide (Eton Bioscience Inc.). Interaction between MEN1 and MLL4-43 in the presence of compounds was determined by fluorescence polarization assay using a Microplate Reader ClarioStar Plus. The reaction was carried out in assay buffer (50 mM TRIS-HCl PH 7.4-7.6, 50 mM NaCl, 1 mM DTT, 0.1 mg/ml BSA). The compounds were dispensed on a 384 well Diamond Well Plate (Axigen, Cat #P-384-120 SQ-C—S) using the Biomek FX liquid handling system at 100× solutions of compounds in DMSO. 2× MEN1 mix (final concentration of MEN1 10 nM) was prepared in Assay buffer and 10 μl of mixture per well was added into 384w white Reaction plate with NBS(Corning, Cat #4513). 10 μl of Assay buffer w/o MENI was used for negative control. Plates were centrifuged for 1 min at 100 g. Next step the Compounds were added to Reaction plate using Biomek station via following steps: 3 μl of 100× compounds (in DMSO) were mixed thoroughly with 27 μl Assay Buffer, then 2 μl of this mixture was added to Reaction plate with 10 μl of MENI mix. Plates were centrifuged for 1 min at 100 g and incubated for 20 min at room temperature. Next 8 μL of MLL4-43 peptide per well was added to final concentration of MLL 0.5 nM. Plates were incubated for 1 hour at room temperature. Then fluorescence polarization was measured using Microplate Reader.

MV4-11 = MV4-11 Cellular Growth Inhibition Assay (CellTiter-Glo); type: cell-based; conditions: Homo sapiens, 168 h, MV4-11 cells, 7 days of incubation
Description: (§1) HEK293 (Institute of Cytology Russian Academy of Science), MV4-11 (ATCC, CRL-9591), MOLM-13 (AcceGen, ABC-TC517S) were seeded at a density of 500 cells per well (HEK293) and 2000 cells per well (MV4-11, MOLM-13) in a 384-well clear bottom plate (Greiner Cat #781090) in 45 μl total volume of DMEM (PanEco, Cat #C420, Russia) or RPMI (PanEco, Cat #C330, Russia) with 10% FBS(HyClone Cat #SV30160.03). HEK293 were allowed to adhere overnight at 37° C., 5% CO2. 500× compounds solutions in DMSO (Sigma Cat #D2650) were prepared into Cmpnds plate (Diamond Well Plate, Axigen, Cat #P-384-120 SQ-C—S) and DMSO only control was included. 1 μl of 500× compounds (Cmpnds plate) was added to 49 μl of culture medium into Dilution plate (Diamond Well Plate, Axigen, Cat #P-384-120 SQ-C—S), mixed and then 5 μl of 10× compounds solutions were transferred to cells followed by centrifugation at 100 g for 1 min. Final DMSO concentration was 0.2%. After 3 days of incubation, 10 μl of 1× compounds were added to cells. After 7 days of incubation, 12 μl of CellTiter-Glo (Promega, CAT #G7572) were added to the cells, plate was centrifuged at 100 g for 1 min and luminescence signal was measured using Microplate Reader (CLARIOStar).

MOLM-13 = MOLM-13 Cellular Growth Inhibition Assay (CellTiter-Glo); type: cell-based; conditions: Homo sapiens, 168 h, MOLM-13 cells, 7 days of incubation
Description: as §1

[2] = HEK293 Cellular Growth Inhibition Assay (CellTiter-Glo); type: cell-based; conditions: human, HEK293 cells, 7 days of incubation
Description: as §1

Row | Compound | EC50 [1] [µM] | CC50 (MV4-11) [µM] | CC50 (MOLM-13) [µM] | CC50 at 7 days [2] [µM]
1 | CCS(=O)(=O)Nc1ccc(CN2CCC3(CC2)CN(c2ncnc4cc(CC(F)(F)F)ccc24)C3)cc1 [Compound 8, N-(4-((2-(7-(2,2,2-trifluoroethyl)quinazolin-4-yl)-2,7-diazaspiro[3.5]nonan-7-yl)methyl)phenyl)ethanesulfonamide] | > 5 | 5 to 10 | 10 to 20 | 15 to 30
2 | CCS(=O)(=O)Nc1ccc(CN2CCC(Nc3ncnc4ccc(CC(F)(F)F)cc34)CC2)cc1 [Compound 36, N-(4-((4-((6-(2,2,2-trifluoroethyl)quinazolin-4-yl)amino)piperidin-1-yl)methyl)phenyl)ethanesulfonamide] | 1 to 5 | 5 to 10 | 5 to 10 | 15 to 30
3 | CCS(=O)(=O)Nc1ccc(CN2CC3(CCN(c4ncnc5ccc(CC(F)(F)F)cc45)CC3)C2)cc1 [Compound 43, N-(4-((7-(6-(2,2,2-trifluoroethyl)quinazolin-4-yl)-2,7-diazaspiro[3.5]nonan-2-yl)methyl)phenyl)ethanesulfonamide] | 1 to 5 | 5 to 10 | 5 to 10 | 15 to 30
4 | CCNS(=O)(=O)c1ccc(CN2CC3(CCN(c4ncnc5ccc(CC(F)(F)F)cc45)CC3)C2)cc1 [Compound 45, N-ethyl-4-((7-(6-(2,2,2-trifluoroethyl)quinazolin-4-yl)-2,7-diazaspiro[3.5]nonan-2-yl)methyl)benzenesulfonamide] | 1 to 5 | 5 to 10 | 5 to 10 | 15 to 30
5 | CCS(=O)(=O)Nc1ccc(CN2CCC3(CC2)CN(c2ncnc4ccc(CCc5ccncc5)cc24)C3)cc1 [Compound 49, N-(4-((2-(6-(2-(pyridin-4-yl)ethyl)quinazolin-4-yl)-2,7-diazaspiro[3.5]nonan-7-yl)methyl)phenyl)ethanesulfonamide] | 1 to 5 | 5 to 10 | 10 to 20 | 30 to 50
6 | CCS(=O)(=O)N[C@H]1CC[C@H](CN2CCC3(CC2)CN(c2ncnc4ccc(C#Cc5ccccc5)cc24)C3)CC1 [Compound 53, N-((1R,4R)-4-((2-(6-(phenylethynyl)quinazolin-4-yl)-2,7-diazaspiro[3.5]nonan-7-yl)methyl)cyclohexyl)ethanesulfonamide] | > 5 | 2.5 to 5 | 5 to 10 | ≤ 5
7 | CCS(=O)(=O)N[C@H]1CC[C@H](CN2CCC3(CC2)CN(c2ncnc4ccc(CCc5cccnc5)cc24)C3)CC1 [Compound 56, N-((1R,4R)-4-((2-(6-(2-(pyridin-3-yl)ethyl)quinazolin-4-yl)-2,7-diazaspiro[3.5]nonan-7-yl)methyl)cyclohexyl)ethanesulfonamide] | 0.5 to 1 | 5 to 10 | 5 to 10 | 15 to 30
8 | CCS(=O)(=O)N[C@H]1CC[C@H](Cn2cc(CNc3ncnc4ccc(CC(F)(F)F)cc34)nn2)CC1 [Compound 69, N-((1R,4R)-4-((4-(((6-(2,2,2-trifluoroethyl)quinazolin-4-yl)amino)methyl)-1H-1,2,3-triazol-1-yl)methyl)cyclohexyl)ethanesulfonamide] | > 5 | > 10 | 5 to 10 | 30 to 50

The next lines start with results.

Row | EC50 [1] [µM] | Compound | CC50 (MV4-11) [µM] | CC50 (MOLM-13) [µM] | CC50 at 7 days [2] [µM]
9 | ≤ 0.075 | CCS(=O)(=O)N[C@H]1CC[C@H](CN2CCC3(CC2)CN(c2ncnc4ccc(CC(F)(F)F)cc24)C3)CC1 [Compound 5, N-((1R,4R)-4-((2-(6-(2,2,2-trifluoroethyl)quinazolin-4-yl)-2,7-diazaspiro[3.5]nonan-7-yl)methyl)cyclohexyl)ethanesulfonamide] | ≤ 1 | 1 to 5 | 5 to 15
10 | ≤ 0.075 | CCS(=O)(=O)Nc1ccc(CN2CCC3(CC2)CN(c2ncnc4ccc(CC(F)(F)F)cc24)C3)cc1 [Compound 7, N-(4-((2-(6-(2,2,2-trifluoroethyl)quinazolin-4-yl)-2,7-diazaspiro[3.5]nonan-7-yl)methyl)phenyl)ethanesulfonamide] | 1 to 2.5 | 1 to 5 | 5 to 15
11 | 0.5 to 1 | CCS(=O)(=O)Nc1cccc(CN2CC3(CCN(c4ncnc5ccc(CC(F)(F)F)cc45)CC3)C2)c1 [Compound 44, N-(3-((7-(6-(2,2,2-trifluoroethyl)quinazolin-4-yl)-2,7-diazaspiro[3.5]nonan-2-yl)methyl)phenyl)ethanesulfonamide] | 1 to 2.5 | 5 to 10 | 5 to 15
12 | 0.5 to 1 | CCS(=O)(=O)N[C@H]1CC[C@H](CN2CCC3(CC2)CN(c2ncnc4ccc(CCc5ccncc5)cc24)C3)CC1 [Compound 48, N-((1R,4R)-4-((2-(6-(2-(pyridin-4-yl)ethyl)quinazolin-4-yl)-2,7-diazaspiro[3.5]nonan-7-yl)methyl)cyclohexyl)ethanesulfonamide] | > 10 | > 20 | 30 to 50
13 | 0.5 to 1 | CCS(=O)(=O)N[C@H]1CC[C@H](CN2CCC3(CC2)CN(c2ncnc4ccc(CCc5ccccc5)cc24)C3)CC1 [Compound 51, N-((1R,4R)-4-((2-(6-phenethylquinazolin-4-yl)-2,7-diazaspiro[3.5]nonan-7-yl)methyl)cyclohexyl)ethanesulfonamide] | 2.5 to 5 | 5 to 10 | 5 to 15
14 | 0.5 to 1 | CCS(=O)(=O)Nc1ccc(CN2CCC3(CC2)CN(c2ncnc4ccc(CCc5ccccc5)cc24)C3)cc1 [Compound 52, N-(4-((2-(6-phenethylquinazolin-4-yl)-2,7-diazaspiro[3.5]nonan-7-yl)methyl)phenyl)ethanesulfonamide] | 1 to 2.5 | 1 to 5 | 5 to 15
15 | 0.075 to 0.5 | CCS(=O)(=O)N[C@H]1CC[C@H](CN2CCC3(CC2)CN(c2ncnc4ccc(CCc5cccc(F)c5)cc24)C3)CC1 [Compound 61, N-((1R,4R)-4-((2-(6-(3-fluorophenethyl)quinazolin-4-yl)-2,7-diazaspiro[3.5]nonan-7-yl)methyl)cyclohexyl)ethanesulfonamide] | 1 to 2.5 | 1 to 5 | 5 to 15
16 | 0.075 to 0.5 | CCS(=O)(=O)N[C@H]1CC[C@H](CN2CCC3(CC2)CN(c2ncnc4ncc(CC(F)(F)F)cc24)C3)CC1 [Compound 65, N-(1R,4R)-[4-[[2-[6-(2,2,2-trifluoroethyl)pyrido[2,3-d]pyrimidin-4-yl]-2,7-diazaspiro[3.5]nonan-7-yl]methyl]cyclohexyl]ethanesulfonamide] | 1 to 2.5 | 1 to 5 | > 50
